# In ChEMBL document CHEMBL3885881, “DrugMatrix”:
# Species on record: Rattus norvegicus
# Assay: DrugMatrix - Regimen: Daily Repeat
# Format: toxicity, organism-based, Sprague-Dawley
# Design: regimen Daily Repeat, gender Male, age 6-8 weeks
# Conditions: in vivo, po, route oral GAVAGE, vehicle .5 % CMC; for BASOPHIL / EOSINOPHIL / ERYTHROCYTE COUNT / HEMATOCRIT / HEMOGLOBIN / LEUKOCYTE COUNT / LYMPHOCYTE / MEAN CORPUSCULAR HEMOGLOBIN / MEAN CORPUSCULAR HEMOGLOBIN CONCENTRATION / MEAN CORPUSCULAR VOLUME / MONOCYTE / NEUTROPHIL / PLATELET COUNT / ABSOLUTE BASOPHIL / ABSOLUTE EOSINOPHIL / ABSOLUTE LYMPHOCYTE / ABSOLUTE MONOCYTE / ABSOLUTE SEGMENTED NEUTROPHIL / NUCLEATED RED BLOOD CELLS: tissue Blood; for ALANINE AMINOTRANSFERASE / ALBUMIN / ALKALINE PHOSPHATASE / ASPARTATE AMINOTRANSFERASE / BLOOD UREA NITROGEN / CHLORIDE / CHOLESTEROL / CREATINE PHOSPHOKINASE / CREATININE / GLUCOSE / PHOSPHORUS / POTASSIUM / SODIUM / TOTAL BILIRUBIN / TOTAL PROTEIN / CARBON DIOXIDE / LACTATE DEHYDROGENASE / LIPASE / URIC ACID: tissue Plasma
# [1] = 20 mg/kg, 72 h, dose level Low, time 3 day
# [2] = 20 mg/kg, 120 h, dose level Low, time 5 day
# [3] = 380 mg/kg, 72 h, dose level High, time 3 day
# [4] = 380 mg/kg, 120 h, dose level High, time 5 day
# [5] = 34 mg/kg, 72 h, dose level Low, time 3 day
# [6] = 34 mg/kg, 120 h, dose level Low, time 5 day
smiles,measurement,setting,value
CNCCCC12CCC(c3ccccc31)c1ccccc12 [MAPROTILINE],BASOPHIL,[1],0%
same,EOSINOPHIL,[1],0.33%
same,ERYTHROCYTE COUNT,[1],5.97 x10E6/uL
same,HEMATOCRIT,[1],35.97%
same,HEMOGLOBIN,[1],14.2 G/DL
same,LEUKOCYTE COUNT,[1],11.3 x10E3/uL
same,LYMPHOCYTE,[1],87.33%
same,MEAN CORPUSCULAR HEMOGLOBIN,[1],23.77 pg
same,MEAN CORPUSCULAR HEMOGLOBIN CONCENTRATION,[1],39.47 G/DL
same,MEAN CORPUSCULAR VOLUME,[1],60.2 fL
same,MONOCYTE,[1],1.67%
same,NEUTROPHIL,[1],10.67%
same,PLATELET COUNT,[1],1123 x10E3/uL
same,ALANINE AMINOTRANSFERASE,[1],39.33 u/L
same,ALBUMIN,[1],3.83 G/DL
same,ALKALINE PHOSPHATASE,[1],403 u/L
same,ASPARTATE AMINOTRANSFERASE,[1],64 u/L
same,BLOOD UREA NITROGEN,[1],12.67 mg/dL
same,CHLORIDE,[1],106.67 MEQ/L
same,CHOLESTEROL,[1],71.67 mg/dL
same,CREATINE PHOSPHOKINASE,[1],175 u/L
same,CREATININE,[1],0.67 mg/dL
same,GLUCOSE,[1],177.33 mg/dL
same,PHOSPHORUS,[1],12.37 mg/dL
same,POTASSIUM,[1],6.9 MEQ/L
same,SODIUM,[1],151.33 MEQ/L
same,TOTAL BILIRUBIN,[1],0.57 mg/dL
same,TOTAL PROTEIN,[1],6.1 G/DL
same,BASOPHIL,[2],0%
same,EOSINOPHIL,[2],1%
same,ERYTHROCYTE COUNT,[2],6.02 x10E6/uL
same,HEMATOCRIT,[2],36.33%
same,HEMOGLOBIN,[2],15.57 G/DL
same,LEUKOCYTE COUNT,[2],13.27 x10E3/uL
same,LYMPHOCYTE,[2],86.33%
same,MEAN CORPUSCULAR HEMOGLOBIN,[2],25.9 pg
same,MEAN CORPUSCULAR HEMOGLOBIN CONCENTRATION,[2],42.9 G/DL
same,MEAN CORPUSCULAR VOLUME,[2],60.4 fL
same,MONOCYTE,[2],1.33%
same,NEUTROPHIL,[2],11.33%
same,PLATELET COUNT,[2],1112.33 x10E3/uL
same,ALANINE AMINOTRANSFERASE,[2],38.67 u/L
same,ALBUMIN,[2],3.83 G/DL
same,ALKALINE PHOSPHATASE,[2],339.67 u/L
same,ASPARTATE AMINOTRANSFERASE,[2],60 u/L
same,BLOOD UREA NITROGEN,[2],14.33 mg/dL
same,CHLORIDE,[2],108.67 MEQ/L
same,CHOLESTEROL,[2],65.33 mg/dL
same,CREATINE PHOSPHOKINASE,[2],168.67 u/L
same,CREATININE,[2],0.7 mg/dL
same,GLUCOSE,[2],182.33 mg/dL
same,PHOSPHORUS,[2],12 mg/dL
same,POTASSIUM,[2],6.77 MEQ/L
same,SODIUM,[2],149 MEQ/L
same,TOTAL BILIRUBIN,[2],0.6 mg/dL
same,TOTAL PROTEIN,[2],6.27 G/DL
same,BASOPHIL,[3],0%
same,EOSINOPHIL,[3],0.33%
same,ERYTHROCYTE COUNT,[3],6.59 x10E6/uL
same,HEMATOCRIT,[3],38.93%
same,HEMOGLOBIN,[3],15.5 G/DL
same,LEUKOCYTE COUNT,[3],12 x10E3/uL
same,LYMPHOCYTE,[3],88.67%
same,MEAN CORPUSCULAR HEMOGLOBIN,[3],23.53 pg
same,MEAN CORPUSCULAR HEMOGLOBIN CONCENTRATION,[3],39.8 G/DL
same,MEAN CORPUSCULAR VOLUME,[3],59.17 fL
same,MONOCYTE,[3],2.33%
same,NEUTROPHIL,[3],8.67%
same,PLATELET COUNT,[3],1142.67 x10E3/uL
same,ALANINE AMINOTRANSFERASE,[3],38 u/L
same,ALBUMIN,[3],3.63 G/DL
same,ALKALINE PHOSPHATASE,[3],350.33 u/L
same,ASPARTATE AMINOTRANSFERASE,[3],63.67 u/L
same,BLOOD UREA NITROGEN,[3],14.33 mg/dL
same,CHLORIDE,[3],106.33 MEQ/L
same,CHOLESTEROL,[3],88.67 mg/dL
same,CREATINE PHOSPHOKINASE,[3],166.33 u/L
same,CREATININE,[3],0.5 mg/dL
same,GLUCOSE,[3],164.67 mg/dL
same,PHOSPHORUS,[3],10.83 mg/dL
same,POTASSIUM,[3],6.27 MEQ/L
same,SODIUM,[3],152.33 MEQ/L
same,TOTAL BILIRUBIN,[3],0.4 mg/dL
same,TOTAL PROTEIN,[3],5.93 G/DL
same,BASOPHIL,[4],0%
same,EOSINOPHIL,[4],1%
same,ERYTHROCYTE COUNT,[4],7.43 x10E6/uL
same,HEMATOCRIT,[4],42%
same,HEMOGLOBIN,[4],16.1 G/DL
same,LEUKOCYTE COUNT,[4],7.2 x10E3/uL
same,LYMPHOCYTE,[4],85%
same,MEAN CORPUSCULAR HEMOGLOBIN,[4],21.7 pg
same,MEAN CORPUSCULAR HEMOGLOBIN CONCENTRATION,[4],38.3 G/DL
same,MEAN CORPUSCULAR VOLUME,[4],56.5 fL
same,MONOCYTE,[4],1%
same,NEUTROPHIL,[4],13%
same,PLATELET COUNT,[4],1275 x10E3/uL
same,ALANINE AMINOTRANSFERASE,[4],81 u/L
same,ALBUMIN,[4],3.7 G/DL
same,ALKALINE PHOSPHATASE,[4],457 u/L
same,ASPARTATE AMINOTRANSFERASE,[4],158 u/L
same,BLOOD UREA NITROGEN,[4],17.5 mg/dL
same,CHLORIDE,[4],108 MEQ/L
same,CHOLESTEROL,[4],44.5 mg/dL
same,CREATINE PHOSPHOKINASE,[4],289 u/L
same,CREATININE,[4],0.65 mg/dL
same,GLUCOSE,[4],206 mg/dL
same,PHOSPHORUS,[4],12.6 mg/dL
same,POTASSIUM,[4],7.3 MEQ/L
same,SODIUM,[4],151.5 MEQ/L
same,TOTAL BILIRUBIN,[4],0.35 mg/dL
same,TOTAL PROTEIN,[4],5.95 G/DL
NS(=O)(=O)c1cc(C(=O)O)c(NCc2ccco2)cc1Cl [FUROSEMIDE],ABSOLUTE BASOPHIL,[5],0 CELLS/uL
same,ABSOLUTE EOSINOPHIL,[5],0 CELLS/uL
same,ABSOLUTE LYMPHOCYTE,[5],13709 CELLS/uL
same,ABSOLUTE MONOCYTE,[5],86 CELLS/uL
same,ABSOLUTE SEGMENTED NEUTROPHIL,[5],1038.33 CELLS/uL
same,BASOPHIL,[5],0%
same,EOSINOPHIL,[5],0%
same,ERYTHROCYTE COUNT,[5],5.45 x10E6/uL
same,HEMATOCRIT,[5],33.7%
same,HEMOGLOBIN,[5],13.47 G/DL
same,LEUKOCYTE COUNT,[5],14.83 x10E3/uL
same,LYMPHOCYTE,[5],92.33%
same,MEAN CORPUSCULAR HEMOGLOBIN,[5],24.7 pg
same,MEAN CORPUSCULAR HEMOGLOBIN CONCENTRATION,[5],39.97 G/DL
same,MEAN CORPUSCULAR VOLUME,[5],61.87 fL
same,MONOCYTE,[5],0.67%
same,NEUTROPHIL,[5],7%
same,NUCLEATED RED BLOOD CELLS,[5],0 /100WBC
same,PLATELET COUNT,[5],1150 x10E3/uL
same,ALANINE AMINOTRANSFERASE,[5],50.33 u/L
same,ALBUMIN,[5],4.17 G/DL
same,ALKALINE PHOSPHATASE,[5],404.33 u/L
same,ASPARTATE AMINOTRANSFERASE,[5],82.67 u/L
same,BLOOD UREA NITROGEN,[5],16 mg/dL
same,CARBON DIOXIDE,[5],29.33 mmol/L
same,CHLORIDE,[5],99 MEQ/L
same,CHOLESTEROL,[5],46.33 mg/dL
same,CREATINE PHOSPHOKINASE,[5],391.33 u/L
same,CREATININE,[5],0.19 mg/dL
same,GLUCOSE,[5],138.67 mg/dL
same,LACTATE DEHYDROGENASE,[5],200.67 u/L
same,LIPASE,[5],9 u/L
same,PHOSPHORUS,[5],10.7 mg/dL
same,POTASSIUM,[5],6.62 MEQ/L
same,SODIUM,[5],143.97 MEQ/L
same,TOTAL BILIRUBIN,[5],0.33 mg/dL
same,TOTAL PROTEIN,[5],5.77 G/DL
same,URIC ACID,[5],1.33 mg/dL
same,ABSOLUTE BASOPHIL,[6],0 CELLS/uL
same,ABSOLUTE EOSINOPHIL,[6],0 CELLS/uL
same,ABSOLUTE LYMPHOCYTE,[6],14118 CELLS/uL
same,ABSOLUTE MONOCYTE,[6],111.33 CELLS/uL
same,ABSOLUTE SEGMENTED NEUTROPHIL,[6],770.67 CELLS/uL
same,BASOPHIL,[6],0%
same,EOSINOPHIL,[6],0%
same,ERYTHROCYTE COUNT,[6],5.69 x10E6/uL
same,HEMATOCRIT,[6],36.23%
same,HEMOGLOBIN,[6],14 G/DL
same,LEUKOCYTE COUNT,[6],15 x10E3/uL
same,LYMPHOCYTE,[6],94%
same,MEAN CORPUSCULAR HEMOGLOBIN,[6],24.6 pg
same,MEAN CORPUSCULAR HEMOGLOBIN CONCENTRATION,[6],38.73 G/DL
same,MEAN CORPUSCULAR VOLUME,[6],63.7 fL
same,MONOCYTE,[6],0.67%
same,NEUTROPHIL,[6],5.33%
same,NUCLEATED RED BLOOD CELLS,[6],0.33 /100WBC
same,PLATELET COUNT,[6],1289.67 x10E3/uL
same,ALANINE AMINOTRANSFERASE,[6],54.33 u/L
same,ALBUMIN,[6],4.37 G/DL
same,ALKALINE PHOSPHATASE,[6],439.33 u/L
same,ASPARTATE AMINOTRANSFERASE,[6],88 u/L
same,BLOOD UREA NITROGEN,[6],23 mg/dL
same,CARBON DIOXIDE,[6],27 mmol/L
same,CHLORIDE,[6],100.33 MEQ/L
same,CHOLESTEROL,[6],42.67 mg/dL
same,CREATINE PHOSPHOKINASE,[6],236.67 u/L
same,CREATININE,[6],0.22 mg/dL
same,GLUCOSE,[6],162.33 mg/dL
same,LACTATE DEHYDROGENASE,[6],196.67 u/L
same,LIPASE,[6],8.67 u/L
same,PHOSPHORUS,[6],11.1 mg/dL
same,POTASSIUM,[6],6.53 MEQ/L
same,SODIUM,[6],144.3 MEQ/L
same,TOTAL BILIRUBIN,[6],0.2 mg/dL
same,TOTAL PROTEIN,[6],6.13 G/DL
same,URIC ACID,[6],1.67 mg/dL
